Targets include Carbonic anhydrase 9 (Homo sapiens, UniProt Q16790); Carbonic anhydrase 2 (Homo sapiens, UniProt P00918); Carbonic anhydrase 1 (Homo sapiens, UniProt P00915).
Assay [1] deals with Carbonic anhydrases; II & IX (Homo sapiens, UniProt P00918+Q16790).
Description: Ratio against Carbonic anhydrase II to Carbonic anhydrase IX

We go through twelve compounds from ChEMBL document CHEMBL1144388, “Carbonic anhydrase inhibitors: synthesis and inhibition of cytosolic/tumor-associated carbonic anhydrase isozymes I, II, and IX with sulfonamides incorporating thioureido-sulfanilyl scaffolds” (Bioorg Med Chem Lett, 2005).

Each structure is given as a SMILES string.

Chain of Carbonic anhydrase 1 (P00915 whole entry): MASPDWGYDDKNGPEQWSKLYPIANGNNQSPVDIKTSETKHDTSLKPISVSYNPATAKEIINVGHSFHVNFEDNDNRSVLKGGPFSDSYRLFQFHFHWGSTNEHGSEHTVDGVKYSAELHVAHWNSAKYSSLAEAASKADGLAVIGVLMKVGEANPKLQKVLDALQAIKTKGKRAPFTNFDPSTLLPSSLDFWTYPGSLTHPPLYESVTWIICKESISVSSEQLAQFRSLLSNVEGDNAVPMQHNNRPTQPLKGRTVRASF
Description for Carbonic anhydrase 1: Inhibitory constant against human Carbonic anhydrase I
Description for Carbonic anhydrase 2: Inhibitory constant against human Carbonic anhydrase II
Description for Carbonic anhydrase 9: Inhibitory constant against human Carbonic anhydrase IX

Take `CN(C)CC/N=C(\S)Nc1ccc(S(=O)(=O)NCc2ccc(S(N)(=O)=O)cc2)cc1`: the Ki amounted to 5.4 nM at Carbonic anhydrase 9, 12 nM at Carbonic anhydrase 2, 210 nM at Carbonic anhydrase 1 and 2.22 Ratio in assay [1].
With `NS(=O)(=O)c1ccc(NS(=O)(=O)c2ccc(N/C(S)=N/N3CCOCC3)cc2)cc1`, the Ki was 290 nM at Carbonic anhydrase 2 and 233 nM at Carbonic anhydrase 1.
For `CN1CCN(CC/N=C(\S)Nc2ccc(S(=O)(=O)NCc3ccc(S(N)(=O)=O)cc3)cc2)CC1`, the Ki was 5 nM on Carbonic anhydrase 9, 10.3 nM at Carbonic anhydrase 2, 246 nM on Carbonic anhydrase 1 and 2.06 Ratio in assay [1].
The like results for `CN1CCN(CC/N=C(\S)Nc2ccc(S(=O)(=O)Nc3ccc(S(N)(=O)=O)cc3)cc2)CC1` were, in that order, 4.8 nM, 7.2 nM, 175 nM and 1.5 Ratio.
With `NS(=O)(=O)c1ccc(CNS(=O)(=O)c2ccc(N/C(S)=N/CCN3CCOCC3)cc2)cc1`, the Ki on Carbonic anhydrase 9 was found to be 4.8 nM; at Carbonic anhydrase 2, 220 nM; at Carbonic anhydrase 1, 3.1 nM; in assay [1] it was 45.83 Ratio.
As to `NS(=O)(=O)c1ccc(CNS(=O)(=O)c2ccc(NC(=S)NN3CCOCC3)cc2)cc1`, the Ki is 278 nM on Carbonic anhydrase 2 and 268 nM at Carbonic anhydrase 1.
`NS(=O)(=O)c1ccc(CC/N=C(\S)Nc2ccc(S(=O)(=O)NCc3ccc(S(N)(=O)=O)cc3)cc2)cc1`: the Ki came out at 4.6 nM at Carbonic anhydrase 9, 46 nM on Carbonic anhydrase 2, 3.7 nM on Carbonic anhydrase 1 and 10 Ratio in assay [1].
For the compound `CN(C)CC/N=C(\S)Nc1ccc(S(=O)(=O)NCCc2ccc(S(N)(=O)=O)cc2)cc1`, the Ki on Carbonic anhydrase 9 came out at 6.1 nM; on Carbonic anhydrase 2 it was 10.1 nM; on Carbonic anhydrase 1 it was 308 nM; in assay [1], 1.65 Ratio.
On to `NS(=O)(=O)c1ccc(CNS(=O)(=O)c2ccc(NC(=S)NCc3ccccn3)cc2)cc1`, for which the Ki at Carbonic anhydrase 2 is 290 nM; on Carbonic anhydrase 1, 355 nM.
Turning to `NS(=O)(=O)c1ccc(NS(=O)(=O)c2ccc(N/C(S)=N/CCN3CCOCC3)cc2)cc1`, the Ki at Carbonic anhydrase 9 is 5.6 nM; on Carbonic anhydrase 2 it was 180 nM; on Carbonic anhydrase 1 it was 9.5 nM; in assay [1] it was 32.14 Ratio.
The like results for `CN(C)CC/N=C(\S)Nc1ccc(S(=O)(=O)Nc2ccc(S(N)(=O)=O)cc2)cc1` were, in that order, 6.7 nM, 8.1 nM, 105 nM and 1.2 Ratio.
In the case of `NS(=O)(=O)c1ccc(CNS(=O)(=O)c2ccc(NC(=S)NCCc3ccccc3)cc2)cc1`, the Ki at Carbonic anhydrase 2 worked out at 640 nM; on Carbonic anhydrase 1 it was 8.6 nM.
